PMC9917023, “Stabilization of Monomeric Tau Protein by All D-Enantiomeric Peptide Ligands as Therapeutic Strategy for Alzheimer’s Disease and Other Tauopathies” (International Journal of Molecular Sciences, 2023)
Non-standard residues stand in square brackets, D forms with d. Residues, ends and D or L forms follow the SMILES beside them.

Assays:
[1] = target: T1, monomeric full-length tau 441 (Homo sapiens, UniProt P10636); assay: SPR measurement (Biacore T200, multicycle); assay type: binding; details: compound immobilized on CM5 chip, tau as analyte, 1:1 fit, dissociation time 60 min; read-out: dissociation rate (kd)
T1 construct: The gene for the human full-length tau was prepared on a plasmid called pET28a(+)-tau2N4R; made in house; host or cells: E. coli pRare
T1 sequence (P10636 1-441 isoform P10636-8): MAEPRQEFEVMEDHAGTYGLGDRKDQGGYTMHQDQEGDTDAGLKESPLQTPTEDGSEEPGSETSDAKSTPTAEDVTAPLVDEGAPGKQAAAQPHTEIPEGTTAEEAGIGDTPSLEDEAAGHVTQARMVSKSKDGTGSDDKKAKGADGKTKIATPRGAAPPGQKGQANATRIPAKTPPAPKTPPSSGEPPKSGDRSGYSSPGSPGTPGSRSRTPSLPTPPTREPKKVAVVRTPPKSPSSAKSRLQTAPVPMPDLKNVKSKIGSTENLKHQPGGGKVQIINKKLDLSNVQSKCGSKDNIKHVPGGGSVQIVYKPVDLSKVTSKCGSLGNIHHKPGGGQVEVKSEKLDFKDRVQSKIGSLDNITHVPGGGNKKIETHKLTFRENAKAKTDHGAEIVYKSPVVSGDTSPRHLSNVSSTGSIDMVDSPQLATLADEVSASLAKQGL
Experimental: (§1) Figure 8 SPR measurements of TF2D-5 and TF2D-5a with monomeric full-length tau 441 and tau repeat region 3. […] The concentration of tau during the measurement ranged from 3.125 nM to 25 nM. […] Tau was used in concentrations ranging from 31.25 nM to 500 nM. SPR measurements of A and B were recorded on a T200 Biacore instrument, the corresponding compound was immobilized on a CM5 chip from Cytiva while monomeric tau served as analyte. Tests were performed with TBS pH 7.4, 0.05% Tween20 and 10 µM DTT as running buffer. Fit calculation was completed with the internal evaluation software of the T200 Biacore. A 1:1 model was used for both fits. […] The concentrations for the single cycle measurement ranged from 3.125 nM to 100 nM. Measurements of C were performed on a Biacore 8K using a CM5 chip from Cytiva. TF2D-5a was immobilized on the chip while the R3 region of tau was used as analyte. PBS pH 7.4 with 0.05% Tween20 as used as running buffer. Fit calculation was performed using the Biacore insight evaluation software and a 1:1 model. […]
Measurements of TF2D-5 and TF2D-5a against full-length tau 441 were performed on a Biacore T200 (Biacore, GE Healthcare, Uppsala, Sweden) using multicycle experiments. […] The data were evaluated using the Biacore T200 Evaluation Software 3.2 using a 1:1 fit (RI = 0).

[2] = target: T2, R3 domain of tau (Homo sapiens, UniProt P10636); assay: SPR measurement (Biacore 8K, single cycle); assay type: binding; details: single cycle kinetics, peptide immobilized on CM5 chip, R3 (304-336) 3.125-100 nM as analyte, PBS pH 7.4, 0.05% Tween20, 1:1 fit
T2 construct: purchased CASLO ApS, Lyngby, Denmark; host or cells: synthetic peptide
T2 sequence (P10636 622-652 limits assumed): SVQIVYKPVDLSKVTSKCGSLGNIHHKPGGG
Experimental: as §1
Measurements of TF2D-5a against the R3 domain of tau were performed on a Biacore 8K (GE Healthcare, Uppsala, Sweden) using a single cycle experiment. […] The data were analyzed using the Biacore insight evaluation software 3.0.12.15655 using a 1:1 fit.

Row | koff [1] [s⁻¹] | Kd [2] [pM] | Compound
1 | 1.9e-05 | – | CC[C@@H](C)[C@@H](NC(=O)[C@@H](Cc1c[nH]cn1)NC(=O)CNC(=O)CNC(=O)[C@H]1CCCN1C(=O)[C@H](NC(=O)[C@@H](CCCCN)NC(=O)[C@@H](Cc1ccccc1)NC(=O)[C@@H](CC(C)C)NC(=O)[C@H](NC(=O)[C@@H](CCC(N)=O)NC(=O)[C@@H](Cc1ccc(O)cc1)NC(=O)CNC(=O)CNC(=O)[C@H](N)CC(=O)O)[C@H](C)CC)[C@H](C)CC)C(=O)N[C@H](Cc1c[nH]cn1)C(N)=O [TF2D-5] (H-[dD]GG[dY][dQ][dI][dL][dF][dK][dI][dP]GG[dH][dI][dH]-NH2)
2 | 4.3e-05 | 7.06 | CC[C@@H](C)[C@@H](NC(=O)[C@@H](Cc1c[nH]cn1)NC(=O)CNC(=O)CNC(=O)[C@H]1CCCN1C(=O)[C@H](NC(=O)[C@@H](CCCCN)NC(=O)[C@@H](Cc1ccccc1)NC(=O)[C@@H](CC(C)C)NC(=O)[C@H](NC(=O)[C@@H](CCC(N)=O)NC(=O)[C@@H](Cc1ccc(O)cc1)NC(=O)CNC(=O)CNC(=O)[C@H](N)CC(=O)O)[C@H](C)CC)[C@H](C)CC)C(=O)N[C@H](Cc1c[nH]cn1)C(=O)N[C@H](CCCNC(=N)N)C(=O)N[C@H](CCCNC(=N)N)C(=O)N[C@H](CCCNC(=N)N)C(=O)N[C@H](CCCNC(=N)N)C(=O)N[C@H](CCCNC(=N)N)C(N)=O [TF2D-5a] (H-[dD]GG[dY][dQ][dI][dL][dF][dK][dI][dP]GG[dH][dI][dH][dR][dR][dR][dR][dR]-NH2)
